Consider 22 compounds from ChEMBL document CHEMBL1156829 (Proc Natl Acad Sci U S A, 2008).

A value given as a limit tells only on which side of the number the result lay.

In data set [1] the test system is Plasmodium falciparum. The experiment in a line: NOVARTIS: Inhibition of Plasmodium falciparum 3D7 (drug-susceptible) proliferation in erythrocyte-based infection assay. It counts as functional, organism-based. Particulars: Plasmodium falciparum, 3D7.
Data set [2] can be described thus: NOVARTIS: Cytotoxicity against human hepatocellular carcinoma cell line (Huh7). Type of data set: toxicity, cell-based, Huh-7. Particulars: Huh7 cells (hepatocellular carcinoma cell line).
The test system of data set [3] is Plasmodium falciparum. Nature of the data set: NOVARTIS: Inhibition of Plasmodium falciparum W2 (drug-resistant) proliferation in erythrocyte-based infection assay. It counts as functional, organism-based. Particulars: Plasmodium falciparum, W2; read-out: EC50.

The term EC50 denotes the concentration at which the effect is half-maximal. Usually CC50 stands for the concentration giving 50% cytotoxicity. Low readings indicate harm at low concentration, high ones better tolerance by the cells. Consider `Cc1ccc2nc(Nc3nc(O)c4ccccc4n3)nc(C)c2c1`, for which the concentration for a half-maximal effect (EC50) in the data set on Plasmodium falciparum [1] is 575 nM; in the data set on Plasmodium falciparum [3], greater than 1620 nM. This compound registered a CC50 in data set [2] greater than 10000 nM.

With `CCCN1CCN(C(=O)CCNC(=O)Cn2cnc3ccccc3c2=O)CC1`, the concentration for a half-maximal effect (EC50) was greater than 1250 nM in the data set with Plasmodium falciparum [1] and 1590 nM in the data set on Plasmodium falciparum [3]. Also, the CC50 in data set [2] is greater than 10000 nM.

For `O=C1NN=C(CC(=O)N2CC[C@@H](c3ccccc3)[C@H](O)C2)C2C=CC=CC12` (stereo partly specified), the half-maximal effective concentration (EC50) with Plasmodium falciparum [1] is greater than 853 nM; with Plasmodium falciparum [3], greater than 1590 nM. Besides, the CC50 in data set [2] is greater than 10000 nM.

`CC1CCN(C(=O)CSc2nc(NCc3ccccc3)c3ccccc3n2)CC1`: the half-maximal effective concentration (EC50) with Plasmodium falciparum [1] was 673 nM; in the data set on Plasmodium falciparum [3], greater than 1580 nM. The same compound gave a half-maximal cytotoxic concentration (CC50) in data set [2] greater than 10000 nM.

Take `CN(C)c1ccc(N/C=C/C(=O)C(C)(C)C)cc1`: the figures for the EC50 with Plasmodium falciparum [1] and in the data set with Plasmodium falciparum [3] were 1450 nM and 1580 nM, respectively. For the same compound, in data set [2], the cytotoxic concentration (CC50) is greater than 10000 nM.

On to `Cc1ccc(Nc2nc3nonc3nc2N(C)C)cc1Cl`, for which the concentration giving a half-maximal response (EC50) is greater than 1460 nM with Plasmodium falciparum [1] and 1610 nM in the data set with Plasmodium falciparum [3]. For the same compound, in data set [2], the 50% cytotoxic concentration (CC50) was greater than 10000 nM.

In the case of `COC(C(=NO)c1ccc(Cl)cc1)c1ccccc1` (stereo unspecified), the results for the EC50 with Plasmodium falciparum [1] and in the data set with Plasmodium falciparum [3] were greater than 912 nM and greater than 1610 nM, respectively. In addition, the CC50 in data set [2] was greater than 10000 nM.

Regarding `COc1ccc(-c2cnc3ccc(NC4CCOCC4)nn23)cc1OC`, the half-maximal effective concentration (EC50) with Plasmodium falciparum [1] was greater than 933 nM; with Plasmodium falciparum [3], greater than 1620 nM. This compound showed a CC50 in data set [2] greater than 10000 nM.

As for `CC(C)CNC(=O)c1cnc(NCCCn2ccnc2)nc1NCC(C)C`, the EC50 in the data set with Plasmodium falciparum [1] turned out to be 768 nM; in the data set on Plasmodium falciparum [3], 1610 nM. Further, in data set [2], the CC50 was greater than 10000 nM.

For `COc1cc(NC(C)CCCN(Cc2ccc(F)cc2)C(=O)Nc2ccc(Br)cc2)c2ncccc2c1` (stereo unspecified), the EC50 with Plasmodium falciparum [1] is 927 nM; with Plasmodium falciparum [3], 691 nM. This compound also gave a CC50 in data set [2] of 4240 nM.

Regarding `CCOCCCN(C(=O)C(F)(F)F)C(C(=O)NC1CCCCC1)c1ccncc1` (stereo unspecified), the EC50 in the data set with Plasmodium falciparum [1] is 1870 nM; in the data set with Plasmodium falciparum [3], greater than 1620 nM. In data set [2], this compound gave a CC50 greater than 10000 nM.

Consider `COc1ccccc1C(=O)NNC(=O)c1ccccn1`, for which the EC50 in the data set on Plasmodium falciparum [1] stood at 1710 nM; with Plasmodium falciparum [3], 1380 nM. The compound also had a CC50 in data set [2] of 8700 nM.

On to `COc1ccc(C(=O)/C(C#N)=C/NC2CCN(Cc3ccccc3)CC2)cc1`, for which the EC50 was 256 nM in the data set on Plasmodium falciparum [1] and greater than 1580 nM in the data set on Plasmodium falciparum [3]. In addition, the CC50 in data set [2] is greater than 10000 nM.

Turning to `CCC(c1ccc(F)cc1)n1cc(C(=O)NCCCN2CCC(C)CC2)nn1` (stereo unspecified), the values for the EC50 in the data set with Plasmodium falciparum [1] and in the data set with Plasmodium falciparum [3] were greater than 651 nM and greater than 1640 nM, respectively. This compound also yielded a half-maximal cytotoxic concentration (CC50) in data set [2] greater than 10000 nM.

Turning to `C=CCNC(=O)CSc1ccc(C(=O)Nc2ccc(Cl)cc2F)cc1[N+](=O)[O-]`, the EC50 was greater than 1170 nM in the data set on Plasmodium falciparum [1] and greater than 1630 nM in the data set with Plasmodium falciparum [3]. The compound further returned a CC50 in data set [2] greater than 10000 nM.

`N#C/C(=C\NC1CCN(Cc2ccccc2)CC1)C(=O)c1cccs1`: the EC50 was determined as 220 nM in the data set on Plasmodium falciparum [1] and 1620 nM in the data set on Plasmodium falciparum [3]. In data set [2], this compound yielded a CC50 greater than 10000 nM.

For the compound `FC(F)(F)c1cccc(Nc2nc3nonc3nc2Nc2ccc(Cl)cc2)c1`, the EC50 in the data set with Plasmodium falciparum [1] was greater than 1310 nM; in the data set with Plasmodium falciparum [3], 1610 nM. Further, the CC50 in data set [2] was greater than 10000 nM.

`CC1CC(C)CN(c2ccc([N+](=O)[O-])cc2-c2nnn[nH]2)C1` (stereo unspecified): the values for the EC50 in the data set with Plasmodium falciparum [1] and in the data set with Plasmodium falciparum [3] were greater than 831 nM and greater than 1610 nM, respectively. This compound also showed a CC50 in data set [2] greater than 10000 nM.

In the case of `Cc1ccc(N2C(=O)CC(NCCCN3CCOCC3)C2=O)cc1` (stereo unspecified), the EC50 with Plasmodium falciparum [1] was greater than 1290 nM; in the data set on Plasmodium falciparum [3] it was 1610 nM. Moreover, in data set [2], the half-maximal cytotoxic concentration (CC50) was greater than 10000 nM.

For the compound `O=C(Cn1c(=O)oc2cc(Cl)ccc21)c1ccccc1`, the concentration for a half-maximal effect (EC50) in the data set with Plasmodium falciparum [1] is greater than 12500 nM; in the data set on Plasmodium falciparum [3], 4500 nM. Besides, the midpoint of cytotoxicity in data set [2], the CC50, lay at 28400 nM.

In the case of `CC1=C(C(=O)OCCC(C)C)C(c2ccccc2)C(C(=O)OCCC(C)C)=C(C)N1`, the EC50 is greater than 918 nM in the data set with Plasmodium falciparum [1] and greater than 1630 nM with Plasmodium falciparum [3]. Further, the CC50 in data set [2] was greater than 10000 nM.

On to `COc1ccc(C2C(C(=O)NCCN(C)C)c3ccccc3C(=O)N2C2CCCCC2)cc1` (stereo unspecified), for which the values for the half-maximal effective concentration (EC50) with Plasmodium falciparum [1] and with Plasmodium falciparum [3] were greater than 427 nM and 1610 nM, respectively. Moreover, in data set [2], the half-maximal cytotoxic concentration (CC50) is greater than 10000 nM.
